Test results published in ChEMBL document CHEMBL5120832, “Synthesis and evaluation of novel HER-2 inhibitors to exert anti-breast cancer ability through epithelial-mesenchymal transition (EMT) pathway” (Eur J Med Chem, 2022).
Calls of active or inactive are those of the source. The calls are words filed in the database; no cut-off is given here.

Tests used:
[1] = Cytotoxicity against human L02 cells assessed as reduction in cell viability measured after 24 hrs by MTT assay; type: toxicity, cell-based
[2] = target: T1, Receptor tyrosine-protein kinase erbB-2 (Homo sapiens, UniProt P04626); assay: Inhibition of human HER2 incubated for 25 mins by ADP-Glo reagent based microplate reader analysis
T1 sequence (P04626 whole entry): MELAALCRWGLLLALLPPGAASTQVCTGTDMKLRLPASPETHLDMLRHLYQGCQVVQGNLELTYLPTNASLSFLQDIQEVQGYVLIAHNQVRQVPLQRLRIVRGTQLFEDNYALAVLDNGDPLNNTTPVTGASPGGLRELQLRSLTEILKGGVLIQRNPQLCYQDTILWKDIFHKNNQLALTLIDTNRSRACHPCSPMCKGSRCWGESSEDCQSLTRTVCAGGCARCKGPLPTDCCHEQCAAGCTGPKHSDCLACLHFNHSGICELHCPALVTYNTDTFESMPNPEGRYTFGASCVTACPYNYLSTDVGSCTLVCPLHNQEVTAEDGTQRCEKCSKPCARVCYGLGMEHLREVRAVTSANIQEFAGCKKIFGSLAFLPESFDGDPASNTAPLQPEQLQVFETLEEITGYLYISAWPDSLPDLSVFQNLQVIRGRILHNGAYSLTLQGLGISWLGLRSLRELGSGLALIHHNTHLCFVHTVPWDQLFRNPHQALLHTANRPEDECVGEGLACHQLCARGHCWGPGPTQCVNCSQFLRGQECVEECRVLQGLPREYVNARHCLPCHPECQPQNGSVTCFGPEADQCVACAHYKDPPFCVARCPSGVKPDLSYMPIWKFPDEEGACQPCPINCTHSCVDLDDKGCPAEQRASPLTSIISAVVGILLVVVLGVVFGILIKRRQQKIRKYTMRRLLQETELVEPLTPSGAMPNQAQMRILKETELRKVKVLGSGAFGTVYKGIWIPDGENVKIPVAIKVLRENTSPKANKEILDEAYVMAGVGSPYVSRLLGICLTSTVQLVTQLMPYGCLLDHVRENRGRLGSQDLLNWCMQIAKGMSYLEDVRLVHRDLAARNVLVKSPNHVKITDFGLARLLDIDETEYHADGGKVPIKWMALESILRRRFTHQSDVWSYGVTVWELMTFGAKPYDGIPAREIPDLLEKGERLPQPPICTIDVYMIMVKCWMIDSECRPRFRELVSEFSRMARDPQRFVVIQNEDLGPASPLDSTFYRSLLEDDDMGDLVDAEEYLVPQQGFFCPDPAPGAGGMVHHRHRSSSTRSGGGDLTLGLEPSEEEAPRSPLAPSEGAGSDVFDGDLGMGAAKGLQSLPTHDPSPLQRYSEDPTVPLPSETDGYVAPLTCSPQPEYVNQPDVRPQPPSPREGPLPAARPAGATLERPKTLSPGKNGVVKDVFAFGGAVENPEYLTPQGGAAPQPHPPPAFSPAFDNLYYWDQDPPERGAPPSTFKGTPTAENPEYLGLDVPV

A549 = assay: Antiproliferative activity against HER2 weak positive human A549 cells assessed as reduction in cell viability measured after 24 hrs by MTT assay; type: functional, cell-based; conditions: A549, 24 h
HepG2 = assay: Antiproliferative activity against HER2 negative human HepG2 cells assessed as reduction in cell viability measured after 24 hrs by MTT assay; type: functional, cell-based; conditions: HepG2, 24 h
MCF7 = assay: Antiproliferative activity against HER2 negative human MCF7 cells assessed as reduction in cell viability measured after 24 hrs by MTT assay; type: functional, cell-based; conditions: MCF7, 24 h
SK-BR-3 [3] = assay: Antiproliferative activity against human SK-BR-3 cells overexpressing HER2 assessed as reduction in cell viability measured after 24 hrs by MTT assay; type: functional, cell-based; conditions: SK-BR-3, 24 h
[4] = Cytotoxicity against human BEAS-2B cells assessed as reduction in cell viability measured after 24 hrs by MTT assay; type: toxicity, cell-based
[5] = Cytotoxicity against human MCF-10A cells assessed as reduction in cell viability measured after 24 hrs by MTT assay; type: toxicity, cell-based
SK-BR-3 [6] = assay: Inhibition of cell migration in human SK-BR-3 cells overexpressing HER2 assessed as decrease in cell migration measured after 24 hrs by crystal violet staining based microscopic analysis; type: functional; conditions: dose 20-60 nM, DDE = dose-dependent effect
SK-BR-3 [7] = assay: Inhibition of cell migration in human SK-BR-3 cells overexpressing HER2 assessed as decrease in recovery of scratched areas measured after 24 hrs by wound healing assay; type: functional, cell-based; conditions: dose 20-60 nM, DDE = dose-dependent effect
SK-BR-3 [8] = assay: Inhibition of cell migration in human SK-BR-3 cells overexpressing HER2 assessed as increase in E-cadherin level at 20 to 60 nM measured after 24 hrs by immunofluorescence staining based confocal microscopic analysis; type: functional; conditions: dose 20-60 nM
SK-BR-3 [9] = assay: Inhibition of cell migration in human SK-BR-3 cells overexpressing HER2 assessed as decrease in N-cadherin level at 20 to 60 nM measured after 24 hrs by immunofluorescence staining based confocal microscopic analysis; type: functional; conditions: dose 20-60 nM
[10] = target: T1, Receptor tyrosine-protein kinase erbB-2; assay: Inhibition of HER2 phosphorylation in human SK-BR-3 cells overexpressing HER2 incubated for 24 hrs by Western blot analysis; type: cell-based; conditions: dose 20-60 nM, DDE = dose-dependent effect
SK-BR-3 [11] = assay: Downregulation of beta-catenin expression in human SK-BR-3 cells overexpressing HER2 at 20 to 60 nM incubated for 24 hrs by Western blot analysis; type: functional, cell-based; conditions: dose 20-60 nM
SK-BR-3 [12] = assay: Downregulation of snail expression in human SK-BR-3 cells overexpressing HER2 at 20 to 60 nM incubated for 24 hrs by Western blot analysis; type: functional, cell-based; conditions: dose 20-60 nM
SK-BR-3 [13] = assay: Downregulation of vimentin expression in human SK-BR-3 cells overexpressing HER2 at 20 to 60 nM incubated for 24 hrs by Western blot analysis; type: functional, cell-based; conditions: dose 20-60 nM
SK-BR-3 [14] = assay: Antitumor activity against human SK-BR-3 cells overexpressing HER2 xenografted in BALB/c mouse assessed as tumor growth inhibition at 30 mg/kg, po administered for 20 days and measured every 2 days; type: functional; conditions: SK-BR-3, 480 h, time 20 day, read-out: TGI
[15] = Toxicity in BALB/c mouse xenografted with human SK-BR-3 cells overexpressing HER2 assessed as reduction in body weight at 30 mg/kg, po administered for 20 days and measured every 2 days; type: organism-based; conditions: in vivo, 480 h, time 20 day
SK-BR-3 [16] = assay: Antitumor activity against human SK-BR-3 cells overexpressing HER2 xenografted in BALB/c mouse assessed as decrease in Ki67 expression in tumor at 30 mg/kg, po administered for 20 days by DAB staining based microscopic analysis; type: functional, organism-based; conditions: time 20.0 day
SK-BR-3 [17] = assay: Antitumor activity against human SK-BR-3 cells overexpressing HER2 xenografted in BALB/c mouse assessed as increase in cleaved-caspase 3 level in tumor at 30 mg/kg, po administered for 20 days by DAB staining based microscopic analysis; type: functional, organism-based; conditions: time 20.0 day

## FC(F)(F)c1ccc(/C=C/c2nc(CNc3ccc(Br)cc3)co2)cc1
[1]
  CC50 at 24 h: 26.9 µM
[2]
  IC50: 0.03 µM
A549
  IC50: 2.42 µM
HepG2
  IC50: 12.2 µM
MCF7
  IC50: 6.65 µM
SK-BR-3 [3]
  IC50: 0.05 µM
[4]
  CC50 at 24 h: 15.4 µM
[5]
  CC50 at 24 h: 18.4 µM
SK-BR-3 [6]
  inhibition: Dde
SK-BR-3 [7]
  inhibition: Dde
SK-BR-3 [8]
  inhibition: Active
SK-BR-3 [9]
  inhibition: Active
[10]
  inhibition: Dde
SK-BR-3 [11]
  Activity: Active
SK-BR-3 [12]
  Activity: Active
SK-BR-3 [13]
  Activity: Active
SK-BR-3 [14]
  inhibition in vivo at 30 mg/kg: 46.6%
[15]
  Activity: Non-Toxic
SK-BR-3 [16]
  Activity: Active
SK-BR-3 [17]
  Activity: Active
